From ChEMBL document CHEMBL4507291 (2021)

Columns and labels:
[1] = target: Serine/threonine-protein kinase MRCK gamma (Homo sapiens) (UniProt Q6DT37)
[2] = target: Serine/threonine-protein kinase PAK 6 (Homo sapiens) (UniProt Q9NQU5)
[3] = target: Serine/threonine-protein kinase MARK1 (Homo sapiens) (UniProt Q9P0L2)
[4] = target: Serine/threonine-protein kinase pim-3 (Homo sapiens) (UniProt Q86V86)
[5] = target: Calcium/calmodulin-dependent protein kinase type 1 (Homo sapiens) (UniProt Q14012)
[6] = target: G protein-coupled receptor kinase 4 (Homo sapiens) (UniProt P32298)
G protein-coupled receptor kinase 4 (Homo sapiens), sequence (P32298 whole entry, looked up): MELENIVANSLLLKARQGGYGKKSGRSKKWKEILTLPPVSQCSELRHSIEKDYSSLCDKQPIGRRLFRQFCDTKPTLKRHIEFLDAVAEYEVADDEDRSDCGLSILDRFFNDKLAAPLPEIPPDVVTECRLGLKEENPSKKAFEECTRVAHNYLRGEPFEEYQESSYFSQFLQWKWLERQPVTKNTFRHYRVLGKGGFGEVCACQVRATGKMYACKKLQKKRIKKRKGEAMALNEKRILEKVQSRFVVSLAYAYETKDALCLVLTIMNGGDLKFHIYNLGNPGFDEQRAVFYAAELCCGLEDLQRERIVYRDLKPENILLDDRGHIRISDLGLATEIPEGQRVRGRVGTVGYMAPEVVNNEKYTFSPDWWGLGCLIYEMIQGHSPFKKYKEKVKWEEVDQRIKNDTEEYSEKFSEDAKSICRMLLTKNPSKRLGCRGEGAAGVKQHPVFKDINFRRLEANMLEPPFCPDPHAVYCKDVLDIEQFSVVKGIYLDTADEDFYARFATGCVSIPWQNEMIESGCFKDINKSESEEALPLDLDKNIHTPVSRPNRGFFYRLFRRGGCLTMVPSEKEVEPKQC

[7] = target: GABA-A receptor; anion channel (Rattus norvegicus) (UniProt O09028+P15431+P18506+P18508+P19969+P20236+P23574+P23576+P28471+P28473+P30191+P62813+P63079+P63138+Q91ZM7+Q9ES14); details: Compound concentration 10.0 uM
[8] = test system: Epidermal growth factor receptor (Homo sapiens), P00533 [UNDEFINED MUTATION]
[9] = target: Protein kinase C delta type (Homo sapiens) (UniProt Q05655)
[10] = target: Mitogen-activated protein kinase kinase kinase 20 (Homo sapiens) (UniProt Q9NYL2)
[11] = target: T1, Serine/threonine-protein kinase Nek9 (Homo sapiens) (UniProt Q8TD19)
T1 sequence (whole entry): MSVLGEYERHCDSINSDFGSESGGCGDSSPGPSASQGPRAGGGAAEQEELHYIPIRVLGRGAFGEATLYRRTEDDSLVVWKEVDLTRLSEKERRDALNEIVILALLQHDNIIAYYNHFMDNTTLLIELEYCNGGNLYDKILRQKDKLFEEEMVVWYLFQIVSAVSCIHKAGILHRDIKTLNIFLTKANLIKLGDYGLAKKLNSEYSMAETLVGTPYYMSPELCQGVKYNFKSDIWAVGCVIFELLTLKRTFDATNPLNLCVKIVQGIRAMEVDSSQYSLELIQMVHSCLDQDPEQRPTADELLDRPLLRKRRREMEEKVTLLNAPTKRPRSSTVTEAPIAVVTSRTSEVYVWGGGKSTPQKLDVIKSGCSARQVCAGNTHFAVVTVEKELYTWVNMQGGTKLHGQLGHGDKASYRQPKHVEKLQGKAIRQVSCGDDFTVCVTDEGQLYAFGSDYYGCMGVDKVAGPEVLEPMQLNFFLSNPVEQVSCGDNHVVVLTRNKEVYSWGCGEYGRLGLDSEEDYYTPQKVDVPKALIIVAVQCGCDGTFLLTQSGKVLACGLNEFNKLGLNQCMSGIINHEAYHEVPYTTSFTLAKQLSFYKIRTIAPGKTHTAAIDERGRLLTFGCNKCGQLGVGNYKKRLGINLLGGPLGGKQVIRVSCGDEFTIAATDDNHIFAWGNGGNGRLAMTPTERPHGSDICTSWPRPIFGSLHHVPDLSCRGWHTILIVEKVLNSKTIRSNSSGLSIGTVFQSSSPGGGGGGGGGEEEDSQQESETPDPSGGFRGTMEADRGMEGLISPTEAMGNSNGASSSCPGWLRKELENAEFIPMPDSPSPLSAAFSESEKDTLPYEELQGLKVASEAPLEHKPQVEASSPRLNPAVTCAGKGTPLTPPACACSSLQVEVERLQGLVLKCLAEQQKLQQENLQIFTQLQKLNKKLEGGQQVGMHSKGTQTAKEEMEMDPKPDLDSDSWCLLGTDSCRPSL

[12] = target: Calcium/calmodulin-dependent protein kinase kinase 1 (Homo sapiens) (UniProt Q8N5S9)
[13] = target: Cyclin-dependent kinase-like 3 (Homo sapiens) (UniProt Q8IVW4)
Cyclin-dependent kinase-like 3 (Homo sapiens), sequence (Q8IVW4 whole entry, looked up): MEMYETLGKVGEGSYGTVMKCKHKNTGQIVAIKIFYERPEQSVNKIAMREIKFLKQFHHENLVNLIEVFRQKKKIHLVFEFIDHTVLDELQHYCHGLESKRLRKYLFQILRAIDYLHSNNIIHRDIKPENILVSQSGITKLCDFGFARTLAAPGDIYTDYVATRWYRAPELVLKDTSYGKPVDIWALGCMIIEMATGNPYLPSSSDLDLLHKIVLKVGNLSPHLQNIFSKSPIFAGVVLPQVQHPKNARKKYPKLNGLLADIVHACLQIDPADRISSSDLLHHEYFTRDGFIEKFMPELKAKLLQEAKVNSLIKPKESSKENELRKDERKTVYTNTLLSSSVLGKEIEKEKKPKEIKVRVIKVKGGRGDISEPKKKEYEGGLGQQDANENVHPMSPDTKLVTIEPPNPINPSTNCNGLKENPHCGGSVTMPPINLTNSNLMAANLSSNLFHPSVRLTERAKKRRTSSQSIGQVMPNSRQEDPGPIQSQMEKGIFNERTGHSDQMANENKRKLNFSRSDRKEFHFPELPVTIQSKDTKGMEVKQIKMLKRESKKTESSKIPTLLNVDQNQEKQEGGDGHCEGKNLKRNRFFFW

[14] = target: Glycogen synthase kinase-3 beta (Homo sapiens) (UniProt P49841)
Glycogen synthase kinase-3 beta (Homo sapiens), sequence (P49841 whole entry, looked up): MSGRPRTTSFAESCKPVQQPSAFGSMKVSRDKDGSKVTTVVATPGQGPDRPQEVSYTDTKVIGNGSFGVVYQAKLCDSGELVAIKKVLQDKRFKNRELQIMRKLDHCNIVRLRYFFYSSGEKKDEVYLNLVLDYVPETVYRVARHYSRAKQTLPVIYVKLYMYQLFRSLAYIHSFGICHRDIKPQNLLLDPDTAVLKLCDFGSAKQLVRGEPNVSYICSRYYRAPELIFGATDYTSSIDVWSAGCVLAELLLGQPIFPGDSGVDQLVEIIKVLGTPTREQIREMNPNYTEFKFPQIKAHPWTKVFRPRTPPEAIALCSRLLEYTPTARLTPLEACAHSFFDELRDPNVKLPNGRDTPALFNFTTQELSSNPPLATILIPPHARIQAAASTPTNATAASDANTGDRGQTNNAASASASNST

[15] = target: Serine/threonine-protein kinase 38 (Homo sapiens) (UniProt Q15208)
[16] = target: Serine/threonine-protein kinase WNK2 (Homo sapiens) (UniProt Q9Y3S1)
Serine/threonine-protein kinase WNK2 (Homo sapiens), sequence (Q9Y3S1 whole entry): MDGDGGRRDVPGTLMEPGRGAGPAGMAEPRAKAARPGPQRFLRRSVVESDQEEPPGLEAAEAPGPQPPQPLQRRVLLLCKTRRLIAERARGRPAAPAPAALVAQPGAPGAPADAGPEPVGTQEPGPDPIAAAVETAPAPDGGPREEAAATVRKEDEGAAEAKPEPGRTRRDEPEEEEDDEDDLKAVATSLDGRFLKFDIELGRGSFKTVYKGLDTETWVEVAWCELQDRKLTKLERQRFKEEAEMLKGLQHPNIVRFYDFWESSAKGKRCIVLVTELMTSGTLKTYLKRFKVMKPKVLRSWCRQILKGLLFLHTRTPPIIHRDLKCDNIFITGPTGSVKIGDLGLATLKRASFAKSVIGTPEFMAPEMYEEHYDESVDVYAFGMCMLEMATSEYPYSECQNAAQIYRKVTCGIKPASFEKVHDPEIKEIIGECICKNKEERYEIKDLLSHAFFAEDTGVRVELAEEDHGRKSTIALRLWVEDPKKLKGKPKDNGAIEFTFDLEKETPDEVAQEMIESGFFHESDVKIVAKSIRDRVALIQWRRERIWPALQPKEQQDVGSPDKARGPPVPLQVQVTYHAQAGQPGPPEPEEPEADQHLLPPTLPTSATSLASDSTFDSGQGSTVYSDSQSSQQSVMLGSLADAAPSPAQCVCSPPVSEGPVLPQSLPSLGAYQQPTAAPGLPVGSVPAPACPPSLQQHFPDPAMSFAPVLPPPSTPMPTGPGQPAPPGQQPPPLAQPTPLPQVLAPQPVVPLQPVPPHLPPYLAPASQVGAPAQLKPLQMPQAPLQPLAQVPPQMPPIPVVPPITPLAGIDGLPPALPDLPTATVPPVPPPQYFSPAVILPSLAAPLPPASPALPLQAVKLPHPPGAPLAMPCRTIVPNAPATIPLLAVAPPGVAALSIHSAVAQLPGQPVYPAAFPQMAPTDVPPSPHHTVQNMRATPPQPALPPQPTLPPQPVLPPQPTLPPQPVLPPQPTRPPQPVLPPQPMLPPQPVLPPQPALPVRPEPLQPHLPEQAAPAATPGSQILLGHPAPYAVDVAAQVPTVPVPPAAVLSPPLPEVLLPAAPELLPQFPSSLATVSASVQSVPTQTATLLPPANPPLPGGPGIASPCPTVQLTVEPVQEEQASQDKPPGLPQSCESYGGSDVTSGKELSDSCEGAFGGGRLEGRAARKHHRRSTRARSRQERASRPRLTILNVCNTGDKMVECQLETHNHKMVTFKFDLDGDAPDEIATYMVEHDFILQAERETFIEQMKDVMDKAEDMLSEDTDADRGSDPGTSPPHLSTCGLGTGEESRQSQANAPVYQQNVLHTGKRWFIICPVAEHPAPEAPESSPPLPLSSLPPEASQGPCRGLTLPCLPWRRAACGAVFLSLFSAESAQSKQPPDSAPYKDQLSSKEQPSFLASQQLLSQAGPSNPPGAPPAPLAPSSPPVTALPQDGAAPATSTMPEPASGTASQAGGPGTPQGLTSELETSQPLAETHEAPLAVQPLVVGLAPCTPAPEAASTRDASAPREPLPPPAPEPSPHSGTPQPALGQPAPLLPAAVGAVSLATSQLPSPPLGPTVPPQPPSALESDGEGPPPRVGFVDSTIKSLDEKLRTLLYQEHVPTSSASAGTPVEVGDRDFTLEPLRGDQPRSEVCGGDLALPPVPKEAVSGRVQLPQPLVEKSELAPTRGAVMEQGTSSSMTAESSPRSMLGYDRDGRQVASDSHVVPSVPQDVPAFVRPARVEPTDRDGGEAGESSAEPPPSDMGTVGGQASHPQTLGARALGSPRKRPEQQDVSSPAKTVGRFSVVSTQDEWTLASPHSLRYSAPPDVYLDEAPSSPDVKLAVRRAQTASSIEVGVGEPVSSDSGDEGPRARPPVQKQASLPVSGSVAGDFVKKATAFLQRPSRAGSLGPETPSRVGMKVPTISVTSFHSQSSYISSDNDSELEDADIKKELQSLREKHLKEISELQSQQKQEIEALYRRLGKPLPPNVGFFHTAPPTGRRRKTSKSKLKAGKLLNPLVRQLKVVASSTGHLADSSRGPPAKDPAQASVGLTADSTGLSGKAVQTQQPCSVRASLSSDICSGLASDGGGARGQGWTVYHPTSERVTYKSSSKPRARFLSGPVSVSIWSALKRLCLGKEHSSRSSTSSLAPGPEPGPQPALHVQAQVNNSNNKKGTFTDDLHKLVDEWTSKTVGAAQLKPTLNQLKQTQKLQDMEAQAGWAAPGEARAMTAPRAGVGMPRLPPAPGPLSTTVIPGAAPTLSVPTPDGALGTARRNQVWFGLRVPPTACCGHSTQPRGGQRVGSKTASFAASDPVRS

[17] = test system: Epidermal growth factor receptor (Homo sapiens), P00533 [UNDEFINED MUTATION]; remark: listed apart in the source
[18] = test system: Proto-oncogene tyrosine-protein kinase receptor Ret (Homo sapiens), P07949 [M918T]
[19] = test system: Epidermal growth factor receptor (Homo sapiens), P00533 [L858R]
[20] = target: SRSF protein kinase 3 (Homo sapiens) (UniProt Q9UPE1)
[21] = target: Cyclin-dependent kinase 8 (Homo sapiens) (UniProt P49336)
[22] = target: Mitogen-activated protein kinase 3 (Homo sapiens) (UniProt P27361)
[23] = target: Non-receptor tyrosine-protein kinase TYK2 (Homo sapiens) (UniProt P29597)
[24] = target: Myosin light chain kinase (Homo sapiens) (UniProt Q32MK0)
Myosin light chain kinase (Homo sapiens), sequence (Q32MK0 whole entry): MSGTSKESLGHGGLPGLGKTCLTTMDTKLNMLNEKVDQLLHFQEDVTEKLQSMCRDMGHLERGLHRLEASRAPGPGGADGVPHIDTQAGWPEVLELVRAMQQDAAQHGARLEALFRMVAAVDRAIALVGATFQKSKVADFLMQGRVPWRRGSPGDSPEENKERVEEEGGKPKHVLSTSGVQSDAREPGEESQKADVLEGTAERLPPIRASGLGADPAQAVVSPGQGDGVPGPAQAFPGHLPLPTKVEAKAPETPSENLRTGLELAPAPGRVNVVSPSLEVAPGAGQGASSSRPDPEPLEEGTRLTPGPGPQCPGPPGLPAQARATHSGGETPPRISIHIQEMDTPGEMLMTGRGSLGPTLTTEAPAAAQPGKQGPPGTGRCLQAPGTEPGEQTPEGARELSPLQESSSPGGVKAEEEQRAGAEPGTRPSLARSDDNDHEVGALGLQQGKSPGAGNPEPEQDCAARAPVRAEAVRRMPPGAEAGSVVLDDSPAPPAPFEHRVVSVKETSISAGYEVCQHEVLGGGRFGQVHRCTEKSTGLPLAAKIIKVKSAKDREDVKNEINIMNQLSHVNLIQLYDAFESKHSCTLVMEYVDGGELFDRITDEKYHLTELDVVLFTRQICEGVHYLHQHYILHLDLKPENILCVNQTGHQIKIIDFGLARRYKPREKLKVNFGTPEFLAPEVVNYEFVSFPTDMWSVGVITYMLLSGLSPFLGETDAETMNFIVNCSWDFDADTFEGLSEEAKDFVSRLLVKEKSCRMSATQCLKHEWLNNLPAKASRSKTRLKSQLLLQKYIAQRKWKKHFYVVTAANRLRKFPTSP

[25] = target: T2, Dual specificity mitogen-activated protein kinase kinase 6 (Homo sapiens) (UniProt P52564)
T2 sequence (whole entry): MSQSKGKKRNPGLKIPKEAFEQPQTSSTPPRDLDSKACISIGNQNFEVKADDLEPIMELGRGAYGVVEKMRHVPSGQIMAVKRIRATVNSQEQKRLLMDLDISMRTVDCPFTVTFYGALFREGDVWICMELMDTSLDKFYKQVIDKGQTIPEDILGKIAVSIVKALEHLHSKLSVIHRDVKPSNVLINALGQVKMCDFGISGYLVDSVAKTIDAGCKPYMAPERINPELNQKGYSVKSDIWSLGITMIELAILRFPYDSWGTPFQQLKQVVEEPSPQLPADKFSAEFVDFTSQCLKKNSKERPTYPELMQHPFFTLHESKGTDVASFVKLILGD

[26] = Compound concentration 1000.0 nM
[27] = Compound concentration 100.0 nM

## C[C@@H]1CN(c2cc(-c3nn(C)c4ccc(OC5(C)CC5)cc34)ncn2)C[C@H](C)O1 [MLi-2-NC]
[1]; [26]
  residual activity: 100%
[2]; [26]
  residual activity: 100%
[3]; [26]
  residual activity: 100%
[4]; [26]
  residual activity: 92%
[5]; [26]
  residual activity: 100%
[6]; [26]
  residual activity: 96%
[7]
  inhibition: 2.92%
[8]; [26]
  residual activity: 92%
[9]; [26]
  residual activity: 100%
[10]; [26]
  residual activity: 100%
[11]; [26]
  residual activity: 71%
[12]; [26]
  residual activity: 80%
[13]; [26]
  residual activity: 88%
[14]; [26]
  residual activity: 91%
[15]; [26]
  residual activity: 57%
[16]; [26]
  residual activity: 63%
[17]; [26]
  residual activity: 74%
[18]; [26]
  residual activity: 84%
[19]; [26]
  residual activity: 95%
[20]; [26]
  residual activity: 98%
[21]; [26]
  residual activity: 100%
[22]; [26]
  residual activity: 100%
[23]; [26]
  residual activity: 51%
[24]; [26]
  residual activity: 97%
[25]; [26]
  residual activity: 89%

## C[C@@H]1CN(c2cc(-c3n[nH]c4ccc(OC5(C)CC5)cc34)ncn2)C[C@H](C)O1 [MLi-2]
[1]; [27]
  residual activity: 89%
[2]; [27]
  residual activity: 100%
[3]; [27]
  residual activity: 100%
[4]; [27]
  residual activity: 100%
[5]; [27]
  residual activity: 100%
[6]; [27]
  residual activity: 100%
[7]
  inhibition: 7.14%
[8]; [27]
  residual activity: 69%
[9]; [27]
  residual activity: 100%
[10]; [27]
  residual activity: 92%
[11]; [27]
  residual activity: 100%
[12]; [27]
  residual activity: 100%
[13]; [27]
  residual activity: 75%
[14]; [27]
  residual activity: 90%
[15]; [27]
  residual activity: 87%
[16]; [27]
  residual activity: 84%
[17]; [27]
  residual activity: 43%
[18]; [27]
  residual activity: 97%
[19]; [27]
  residual activity: 82%
[20]; [27]
  residual activity: 100%
[21]; [27]
  residual activity: 63%
[22]; [27]
  residual activity: 87%
[23]; [27]
  residual activity: 81%
[24]; [27]
  residual activity: 87%
[25]; [27]
  residual activity: 100%
